# Reference: patent US6548511B1, “Insecticidal/acaricidal agents” (Sagami Chemical Research Center, priority 1997, dated 2003)
# How the values were obtained:
# [1] = system: adzuki bean weevil imagoes; assay: Insecticidal effect on adzuki bean weevil imagoes; type: in vivo; settings: 500 ppm, emulsifiable concentrate sprayed, 25° C., 4 days after treatment
# [2] = system: two-spotted spider mite female imagoes; assay: Acaricidal effect on two-spotted spider mite imagoes; type: in vivo; settings: 500 ppm, wettable powder sprayed on kidney bean leaf disc, 24 hours after treatment
# Protocol: A total of 10 two-spotted spider mite female imagoes were released on a disc cut out from a kidney bean leaf (3 cm in diameter). The acaricide of the present invention (wettable powder) produced in accordance with the method of Formulation Example 1 was diluted with water to a predetermined concentration, and the solution (3.5 ml) was applied on the just described cut leaf (one concentration, two repetition) using a rotary sprayer (manufactured by Mizuho Rika). After 24 hours of the treatment, mortality of the imagoes was examined to calculate acaricidal ratio (%).
# common cutworm larvae = assay: Insecticidal effect on common cutworm larvae; type: in vivo; settings: 500 ppm, wettable powder, cabbage leaf disc soaked, 3rd instar larvae, 25° C., 5 days
# Protocol: A disc of cabbage leaf (6 cm in diameter) was cut out and soaked for 1 minute in a water-diluted solution of the insecticide of the present invention (wettable powder) produced in accordance with the method of Formulation Example 1. After the soaking, the leaf disc was air-dried and set in a plastic cup (7 cm in inner diameter), and 5 common cutworm larvae of 3rd instar were released therein (one concentration, two repetition). The thus released larvae were kept in a constant temperature chamber at 25° C., mortality and agony of the larvae were examined 5 days thereafter, and insecticidal ratio (%) was calculated by defining the larva in agony as ½ dead larvae.
# diamondback moth larvae = assay: Insecticidal effect on diamondback moth larvae; type: in vivo; settings: 500 ppm, wettable powder, cabbage leaf disc soaked, 3rd instar larvae, 4 days after release
# Protocol: A disc of cabbage leaf (6 cm in diameter) was cut out and soaked for 1 minute in a water-diluted solution of the insecticide of the present invention (wettable powder) produced in accordance with the method of Formulation Example 1. After the soaking, the disc was air-dried and set in a plastic cup (7 cm in inner diameter), and 5 diamondback moth larvae of 3rd instar were released therein (one concentration, two repetition). After 4 days of the release of larvae, mortality and agony of the larvae were examined, and insecticidal ratio (%) was calculated by defining the larvae in agony as ½ dead larvae.
# [3] = system: brown rice planthopper larvae; assay: Insecticidal effect on brown rice planthopper larvae; type: in vivo; settings: 500 ppm, emulsifiable concentrate sprayed on rice seedling, 4th instar larvae, 5 days after treatment
# Protocol: A sprouted rice seedling was set in a glass cylinder (3 cm in inner diameter×17 cm in length), and 5 brown rice planthopper larvae of 4th instar were released therein. A water-diluted solution (0.5 ml) of the insecticide of the present invention (emulsifiable concentrate) produced in accordance with the method of Formulation Example 3 was applied to the just described glass cylinder (one concentration, two repetition) using a sprayer (manufactured by Mizuho Rika). After 5 days of the treatment, mortality and agony of the larvae were examined, and insecticidal ratio (%) was calculated by defining the larva in agony as ½ dead larvae.
# green peach aphid larvae = assay: Insecticidal effect on green peach aphid larvae; type: in vivo; settings: 500 ppm, emulsifiable concentrate, radish leaf soaked, 25° C., 4th day after treatment
# Protocol: A petiole part of a radish leaf was put into a screw bottle (capacity: 10 ml) filled with water, and 5 to 6 per one leaf of green peach aphid imagoes were inoculated. After the inoculation, the resulting bottle was put into a glass cylinder (3.5 cm in diameter and 15 cm in height, equipped with a mesh cover), and the green peach aphid imagoes were allowed to propagate in a constant temperature chamber at 25° C. for 3 days. After removal of the green peach aphid imagoes from the radish leaf, the resulting leaf was soaked (about 5 seconds) in a water-diluted solution of the insecticide (emulsifiable concentrate) of the present invention and then returned into the glass cylinder (one concentration, two repetition). The cylinder was kept in the constant temperature chamber of 25° C., and the number of aphid individuals on the radish leaf was examined on the 4th day after the treatment to calculate the insecticidal ratio (%) based on the result.
# [4] = system: two-spotted spider mite eggs; assay: Acaricidal effect on two-spotted spider mite eggs; type: in vivo; settings: 500 ppm, wettable powder sprayed on kidney bean leaf disc, egg-killing ratio 8 days after treatment
# Protocol: A total of 5 two-spotted spider mite female imagoes were released on a disc cut out from a kidney bean leaf (3 cm in diameter). The thus released female imagoes were allowed to lay eggs on the cut leaf for 20 hours and then removed. The acaricide of the present invention (wettable powder) produced in accordance with the method of Formulation Example 1 was diluted with water to a predetermined concentration, and the solution (3.5 ml) was applied on the just described disc (one concentration, two repetition) using a rotary sprayer (manufactured by Mizuho Rika). After 8 days of the treatment, the number of unhatched eggs and the number of hatched imagoes were examined to calculate egg-killing ratio (%).
smiles,measurement,setting,value
"Cn1c(Nc2cc(C(F)(F)F)ccc2C(F)(F)F)nc(C(F)(F)F)cc1=O [Compound No. 46, 2-{2,5-bis(trifluoromethyl)phenyl}amino-3-methyl-6-trifluoromethyl-4(3H)-pyrimidinone]",Insecticidal ratio (%),[1],100%
same,Acaricidal ratio (%) imagoes,[2],100%
same,Insecticidal ratio (%),common cutworm larvae,100%
same,Insecticidal ratio (%),diamondback moth larvae,100%
same,Insecticidal ratio (%),[3],100%
same,Insecticidal ratio (%),green peach aphid larvae,100%
same,Acaricidal ratio (%) eggs,[4],100%
"Cn1c(Nc2cc(C(F)(F)F)cc(C(F)(F)F)c2)nc(C(F)(F)F)cc1=O [compound 69, 2-{3,5-bis(trifluoromethyl)phenyl}amino-3-methyl-6-trifluoromethyl-4(3H)-pyrimidinone]",Insecticidal ratio (%),common cutworm larvae,100%
same,Insecticidal ratio (%),diamondback moth larvae,100%
CCCCn1c(Nc2cc(C(F)(F)F)ccc2Cl)nc(C(F)(F)F)cc1=O [Compound No. 22],Acaricidal ratio (%) imagoes,[2],100%
same,Acaricidal ratio (%) eggs,[4],100%
"CC(C)Cn1c(Nc2cc(C(F)(F)F)ccc2C(F)(F)F)nc(C(F)(F)F)cc1=O [Compound No. 56, 2-{2,5-bis(trifluoromethyl)phenyl}amino-3-isobutyl-6-trifluoromethyl-4(3H)-pyrimidinone]",Insecticidal ratio (%),[1],100%
same,Acaricidal ratio (%) imagoes,[2],100%
same,Insecticidal ratio (%),common cutworm larvae,100%
same,Insecticidal ratio (%),diamondback moth larvae,100%
same,Acaricidal ratio (%) eggs,[4],100%
"CCn1c(Nc2cc(C(F)(F)F)ccc2C(F)(F)F)nc(C(F)(F)F)cc1=O [Compound No. 47, 2-{2,5-bis(trifluoromethyl)phenyl}amino-3-ethyl-6-trifluoromethyl-4(3H)-pyrimidinone]",melting point,,173 to 175 °C
CCn1c(Nc2cc(Cl)ccc2Cl)nc(C(F)(F)F)cc1=O,melting point,,167 to 168 °C
"Cn1c(Nc2cc(C(F)(F)F)ccc2Cl)nc(C(F)(F)F)cc1=O [Compound No. 20, 2-(2-chloro-5-trifluoromethylphenyl)amino-3-methyl-6-trifluoromethyl-4(3H)-pyrimidinone]",Insecticidal ratio (%),common cutworm larvae,100%
same,Insecticidal ratio (%),diamondback moth larvae,100%
"O=c1c(Cl)c(C(F)(F)F)nc(Nc2cc(C(F)(F)F)ccc2C(F)(F)F)n1C1CCCCC1 [Compound No. 65, 2-{2,5-bis(trifluoromethyl)phenyl}amino-5-chloro-3-cyclohexyl-6-trifluoromethyl-4(3H)-pyrimidinone]",melting point,,181 to 183 °C
"CCn1c(Nc2ccc(C(F)(F)F)cc2C(F)(F)F)nc(C(F)(F)F)c(Cl)c1=O [Compound No. 34, 2-{2,4-bis(trifluoromethyl)phenyl}amino-5-chloro-3-ethyl-6-trifluoromethyl-4(3H)-pyrimidinone]",melting point,,124 °C
"CCC(C)n1c(Nc2cc(C(F)(F)F)ccc2C(F)(F)F)nc(C(F)(F)F)c(Cl)c1=O (stereo not shown) [Compound No. 59, 2-{2,5-bis(trifluoromethyl)phenyl}amino-3-sec-butyl-5-chloro-6-trifluoromethyl-4(3H)-pyrimidinone]",melting point,,133 to 135 °C
"O=c1cc(C(F)(F)F)nc(Nc2cc(C(F)(F)F)ccc2C(F)(F)F)n1C1CCCCC1 [Compound No. 64, 2-{2,5-bis(trifluoromethyl)phenyl}amino-3-cyclohexyl-6-trifluoromethyl-4(3H)-pyrimidinone]",melting point,,154 to 156 °C
"C=CCn1c(Nc2cc(C(F)(F)F)ccc2C(F)(F)F)nc(C(F)(F)F)cc1=O [Compound No. 66, 3-allyl-2-{2,5-bis(trifluoromethyl)phenyl}amino-6-trifluoromethyl-4(3H)pyrimidinone]",melting point,,116 to 118 °C
"CC(C)Cn1c(Nc2cc(C(F)(F)F)ccc2Cl)nc(C(F)(F)F)cc1=O [compound 23, 2-(2-chloro-5-trifluoromethylphenyl)amino-3-isobutyl-6-trifluoromethyl-4(3H)-pyrimidinone]",Insecticidal ratio (%),common cutworm larvae,100%
"CCC(C)n1c(Nc2cc(C(F)(F)F)ccc2C(F)(F)F)nc(C(F)(F)F)cc1=O (stereo not shown) [Compound No. 58, 2-{2,5-bis(trifluoromethyl)phenyl}amino-3-sec-butyl-6-trifluoromethyl-4(3H)-pyrimidinone]",melting point,,165 to 167 °C
"CCCn1c(Nc2cc(C(F)(F)F)ccc2C(F)(F)F)nc(C(F)(F)F)c(Cl)c1=O [Compound No. 51, 2-{2,5-bis(trifluoromethyl)phenyl}amino-5-chloro-3-propyl-6-trifluoromethyl-4(3H)-pyrimidinone]",melting point,,124 to 126 °C
